Experimental data: US4857547A, “Novel HMG-CoA reductase inhibitors” (Merck & Co., Inc., priority 1988, dated 1989)

Molecular target: T1, HMG-CoA reductase (Rattus norvegicus, UniProt P51639)
T1 sequence (P51639 1-887): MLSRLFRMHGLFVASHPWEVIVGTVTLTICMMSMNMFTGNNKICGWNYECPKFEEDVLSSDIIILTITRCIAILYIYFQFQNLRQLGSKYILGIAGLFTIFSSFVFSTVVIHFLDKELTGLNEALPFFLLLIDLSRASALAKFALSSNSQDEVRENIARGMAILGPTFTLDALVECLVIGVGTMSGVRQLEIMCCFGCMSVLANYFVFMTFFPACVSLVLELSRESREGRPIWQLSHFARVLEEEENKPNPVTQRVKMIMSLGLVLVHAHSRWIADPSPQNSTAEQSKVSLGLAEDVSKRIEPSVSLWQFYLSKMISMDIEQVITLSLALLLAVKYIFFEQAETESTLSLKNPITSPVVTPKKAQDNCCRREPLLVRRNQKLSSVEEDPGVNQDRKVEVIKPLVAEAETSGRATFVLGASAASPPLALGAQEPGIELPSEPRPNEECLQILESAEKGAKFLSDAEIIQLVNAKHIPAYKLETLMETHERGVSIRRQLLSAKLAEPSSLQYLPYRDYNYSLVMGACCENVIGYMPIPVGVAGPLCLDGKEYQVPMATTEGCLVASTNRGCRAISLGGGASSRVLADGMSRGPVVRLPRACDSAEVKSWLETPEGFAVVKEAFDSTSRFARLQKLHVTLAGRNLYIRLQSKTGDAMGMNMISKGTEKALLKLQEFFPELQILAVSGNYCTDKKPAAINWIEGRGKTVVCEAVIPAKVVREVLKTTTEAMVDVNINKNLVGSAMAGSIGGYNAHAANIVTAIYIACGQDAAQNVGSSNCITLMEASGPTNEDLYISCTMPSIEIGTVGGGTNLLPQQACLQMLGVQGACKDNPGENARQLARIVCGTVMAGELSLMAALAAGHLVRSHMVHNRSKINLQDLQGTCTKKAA
Experiment: intrinsic HMG-CoA reductase inhibition, in vitro protocol (J. Med. Chem., 28, p. 347-358 (1985))
Type: biochemical
Details: compactin (mevastatin) assigned a value of 100; IC50 of test compound compared with that of mevastatin determined simultaneously
Protocol: The intrinsic HMG-CoA reductase inhibition activity of the claimed compounds is measured in the in vitro protocol published in J. Med. Chem., 28, p. 347-358 (1985).
For estimation of relative inhibitory potencies, compactin (i.e., mevastatin) was assigned a value of 100 and the IC50 value of the test compound was compared with that of mevastatin (compactin) determined simultaneously in the published in vitro protocol.

| SMILES | Relative Potency |
| --- | --- |
| CCC(C)(C)C(=O)O[C@H]1CC(C(=O)O)=CC2=CC[C@H](C)[C@H](CC[C@@H]3C[C@@H](O)CC(=O)O3)[C@H]21 [Example 2, 6(R)-[2-[8(S)-(2,2-dimethylbutyryloxy)-2(S)-methyl-6-carboxy-1,2,3,7,8,8a(R)-hexahydronaphthyl-1(S)]-ethyl]-4(R)-hydroxy-3,4,5,6-tetrahydro-2H-pyran-2-one] | 100 |
| CCC(C)(C)C(=O)O[C@H]1CC(COC(=O)Nc2ccccc2)=CC2=CC[C@H](C)[C@H](CC[C@@H]3C[C@@H](O)CC(=O)O3)[C@H]21 [Example 4, 6(R)-[2-[8(S)-(2,2-dimethylbutyryloxy)-2(S)-methyl-6-phenylaminocarbonyloxymethyl-1,2,3,7,8,8a(R)-hexahydronaphthyl-1(S)]-ethyl]-4(R)-hydroxy-3,4,5,6-tetrahydro-2H-pyran-2-one] | 200 |
| CCC(C)(C)C(=O)O[C@H]1CC(CO)=CC2=CC[C@H](C)[C@H](CC[C@@H]3C[C@@H](O)CC(=O)O3)[C@H]21 [Example 1, 6(R)-[2-[8(S)-(2,2-dimethylbutyryloxy)-2(S)-methyl-6-hydroxymethyl-1,2,3,7,8,8a(R)-hexahydronaphthyl-1(S)]-ethyl]-4(R)-hydroxy-3,4,5,6-tetrahydro-2H-pyran-2-one] | 75 |
